The test system of series [1] is CEM, K562, HL-60, and CRL cell lines. Put plainly: Intracellular 3′-dATP quantification, cell lines together. The class given is cell-based, human. As to the method:
HL-60 (ATCC CCL-240), K562 (ATCC CCL-243), CCRF-CEM (ATCC CRM-CCL-119), and RL (ATCC CRL-2261) leukemia cell lines were obtained from the American Type Culture Collection (ATCC), Middlesex. HL-60 and K562 cell lines are deoxynucleotidyl transferase-negative (TdT^–ve), whereas CCRF-CEM cell line is TdT^+ve. They were cultured in RPMI-1640 medium (Sigma-Aldrich, U.K.), which were supplemented with 10% fetal bovine serum (FBS) (PAA Laboratories), 1% amphotericin B (5.5 mL), and 1% penicillin/streptomycin (5.5 mL) (PAA Laboratories) and grown in flasks at 37 °C in an incubator with 5% CO2. […]
The analytes were resolved using an ultraperformance liquid chromatography system (Accela UPLC, Thermo Scientific, U.K.) equipped with a Biobasic A × 5 μm, 50 × 2.1 mm column (Thermo Electron Corporation, Murrieta, CA) and mobile phase consisting of a mixture of 10 mM NH4Ac in ACN/H2O (30:70 v/v), pH 6.0 (A), and 1 mM NH4Ac in ACN/H2O (30:70 v/v), pH 10.5 (B). […] Eluting compounds of interest were detected using a triple-stage quadrupole Vantage mass spectrometry system (Thermo Scientific, U.K.) equipped with an electrospray ion source. Samples were analyzed in the Multiple Reaction Monitoring, negative-ion modes at a spray voltage of 3000 V. Nitrogen was used as sheath and auxiliary gas at flow rates of 50 and 20 arbitrary units, respectively. […]

Series [2] deals with T1, carboxypeptidase Y (Saccharomyces cerevisiae, UniProt P00729).
T1 construct: purchased Sigma-Aldrich
Put plainly: Carboxypeptidase Y assay (31P NMR). To be noted: acetone-d6/Trizma buffer pH 7.6, 31P NMR. The class given is in vitro ADME. As to the method: ProTides 7a (5 mg, ±0.008 mmol) was dissolved in 150 μL of acetone-d6, and 300 μL of trizma buffer (pH 7.6) was added. A ^31P NMR (202 MHz, 64–128 scans) was conducted at this stage as a reference (blank, t = 0). To this mixture, 130 μL of a stock solution of carboxypeptidase enzyme (purchased from Sigma-Aldrich, >50 unit/mg, dissolved in trizma buffer 7.6 pH to a concentration of 50 units/mL, EC 3.4.16.1) was added. ^31P NMR (128 scans) were carried out with 1 min of delay between experiments for 14 h at 25 °C.

Series [3] deals with advanced solid tumors or lymphoma. Further details: method as in PMID 34497073. Conditions: preliminary findings, phase I/II trial; cited from earlier work.
A short description of series [4]: Metabolic stability in cryopreserved human hepatocytes. It is filed as in vitro ADME. To be noted: for hepatocyte CLint at 1 μM: pH 7.3, read-out: Clint (intrinsic clearance). As to the method:
The assay was contracted and performed by Cerep (Seattle, WA Laboratories, 15318 N. E. 95th Street Redmond, WA, 98052) according to the published procedure (Cerep ref 1432). Pooled cryopreserved hepatocytes were thawed, washed, and resuspended in Krebs–Heinslet buffer (pH 7.3). The reaction was initiated by adding the test compound (1 μM final concentration) into cell suspension and incubated in a final volume of 100 μL on a flat-bottom 96-well plate for 0 and 60 min, respectively, at 37 °C/5% CO2. The reaction was stopped by adding 100 μL of acetonitrile into the incubation mixture. Samples were then mixed gently and briefly on a plate shaker, transferred completely to a 0.8 mL V-bottom 96-well plate, and centrifuged at 2550g for 15 min at room temperature. Each supernatant (150 μL) was transferred to a clean cluster tube, followed by high-performance liquid chromatography–tandem mass spectrometry (HPLC-MS/MS) analysis on a Thermo Electron triple quadrupole system.

Where [5] appears, read: pH 7.3, read-out: t1/2 (half-life).

Like-named read-outs stand apart in the source and are kept apart here.

T1 sequence (P00729 112-532, species assumed): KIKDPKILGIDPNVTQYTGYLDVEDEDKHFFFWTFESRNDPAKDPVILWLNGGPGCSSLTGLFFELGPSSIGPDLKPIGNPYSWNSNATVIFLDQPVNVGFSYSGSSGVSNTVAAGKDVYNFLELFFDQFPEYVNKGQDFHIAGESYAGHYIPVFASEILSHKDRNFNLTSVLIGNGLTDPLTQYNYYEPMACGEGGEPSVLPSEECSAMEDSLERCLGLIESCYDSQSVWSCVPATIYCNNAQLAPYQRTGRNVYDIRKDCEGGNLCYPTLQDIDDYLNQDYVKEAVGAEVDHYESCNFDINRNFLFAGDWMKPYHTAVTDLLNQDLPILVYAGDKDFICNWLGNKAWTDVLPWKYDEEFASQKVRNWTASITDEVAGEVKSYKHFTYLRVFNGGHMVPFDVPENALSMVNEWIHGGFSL

Turning to `C[C@H](NP(=O)(OC[C@@H]1C[C@@H](O)[C@H](n2cnc3c(N)ncnc32)O1)Oc1ccccc1)C(=O)OCc1ccccc1` (stereo partly drawn) [Compound 7a, (Rp)- and (Sp)-3′-Deoxyadenosine 5′-O-phenyl-(benzoxy-L-alaninyl)-phosphate], the “effect of hENT1, AK, and ADA inhibitors on intracellular 3′-dATP levels” value in series [1] is “did not affect”. Moreover, the “time to complete conversion into aminoacyl phosphoramidate ester II” value in series [2] stood at 1 h. Also, in series [3], the anticancer activity entry is given as “encouraging signals of anticancer activity” and the tolerability entry is on record as “well tolerated”. The hepatocyte CLint at 1 μM in series [4] (pooled cryopreserved hepatocytes) was 22.6 µL/min/1e6 cells. Further, the half-life at 1 h, 1 µM in series [4] (pooled cryopreserved hepatocytes, pH 7.3, read-out: t1/2 (half-life)) was determined as 48.1 min.

`CCOC(=O)CCc1ccccc1OP(=O)(N[C@@H](C)C(=O)OCc1ccccc1)OC[C@@H]1C[C@@H](O)[C@H](n2cnc3c(N)ncnc32)O1` (stereo partly drawn) [Compound 7e]: in series [4], the hepatocyte CLint at 1 μM turned out to be 41.1 µL/min/1e6 cells. In addition, in series [4] (setting [5]), the half-life at 1 μM came to 26 min and the half-life at 1 h, 1 µM came to 25.6 min.
